The values below come from US20150202329A1, “Methods and Composition for Detecting Intestinal Cell-Barrier Dysfunction” (priority 2012, published 2015).

Entries after “also recorded” stand apart in the source; their conditions may differ.

The test system of data set [1] is T84 monolayers. Briefly: Movement of microspheres and E. coli across the T84 monolayer in Transwell. It counts as cell-based, human. As to conditions: nigericin 10 μM overnight (lowest dose). The text has this:
(§1) To determine whether this form of cell extrusion results in loss of barrier function, we measured the trans-epithelial electrical resistance (TER). […] Given that the breach in the T84 monolayers appeared to be 1-2 μm in diameter on TEM images, we evaluated the epithelial integrity to microparticles (1 μm Fluoresbrite® Microspheres) and microbes (E. coli […]) using the lowest dose of nigericin treatment. […] Fluoresbrite microspheres and E. coli TMW2.497 were recovered in the media from basolateral well.
T84 human colon cancer epithelial cells were maintained in tissue culture plates (10 cm) in Dulbecco's minimal essential medium (DMEM)/F-12, 10% (v/v) heat-inactivated fetal bovine serum (FBS), 1%(w/v) penicillin-streptomycin. The cells were plated onto Transwells (2×10^5 cells/well, 6.5 mm diameter; 0.4 μm-pore size; Corning Life Sciences, Tewksbury, Mass.) and grown until development of apical junctional complexes (as indicated by a transepithelial resistance of >2,000 Ω·cm^2) for studies. For caspase-1 inhibition experiment, prior to nigericin treatment, the tissue culture medium was removed and fresh medium with 50 µM caspase-1 inhibitor (Ac-YVAD-CMK) was introduced. […] Transepithelial resistance (TER) was measured at before and 3 h after Nigericin treatment, using a Millicell-ERS Voltmeter and chopstick electrodes (Millipore, Bedford, Mass.). […]

For data set [2], the system named is polarized T84 monolayers. Nature of the data set: Caspase-1 activation and cell extrusion in nigericin-treated polarized T84 monolayers (FLICA 1 staining, Western blot). It counts as cell-based, human. From the text:
To investigate the morphology of caspase-1-induced IEC extrusion, we applied nigericin, a well-established Nlrp3-dependent inflammasome activator to polarized T84 monolayers. […] Active caspase-1 expression in nigericin-treated T84 cells was confirmed by Western blot analysis (FIG. 1b).
T84 human colon cancer epithelial cells were maintained in tissue culture plates (10 cm) in Dulbecco's minimal essential medium (DMEM)/F-12, 10% (v/v) heat-inactivated fetal bovine serum (FBS), 1%(w/v) penicillin-streptomycin. The cells were plated onto Transwells (2×10^5 cells/well, 6.5 mm diameter; 0.4 μm-pore size; Corning Life Sciences, Tewksbury, Mass.) and grown until development of apical junctional complexes (as indicated by a transepithelial resistance of >2,000 Ω·cm^2) for studies. For caspase-1 inhibition experiment, prior to nigericin treatment, the tissue culture medium was removed and fresh medium with 50 µM caspase-1 inhibitor (Ac-YVAD-CMK) was introduced. Nigericin (10, 25, 50 µM) was added to both the apical and basolateral aspect of the Transwell. Transepithelial resistance (TER) was measured at before and 3 h after Nigericin treatment, using a Millicell-ERS Voltmeter and chopstick electrodes (Millipore, Bedford, Mass.). […]
For orientation: Immunoblotting shows a protein as a band on a membrane.

Data set [3] concerns T84 monolayers. Briefly: Trans-epithelial electrical resistance (TER) of T84 monolayers. It is filed as cell-based, human.
Description: as §1
T84 human colon cancer epithelial cells were maintained in tissue culture plates (10 cm) in Dulbecco's minimal essential medium (DMEM)/F-12, 10% (v/v) heat-inactivated fetal bovine serum (FBS), 1%(w/v) penicillin-streptomycin. The cells were plated onto Transwells (2×10^5 cells/well, 6.5 mm diameter; 0.4 μm-pore size; Corning Life Sciences, Tewksbury, Mass.) and grown until development of apical junctional complexes (as indicated by a transepithelial resistance of >2,000 Ω·cm^2) for studies. For caspase-1 inhibition experiment, prior to nigericin treatment, the tissue culture medium was removed and fresh medium with 50 µM caspase-1 inhibitor (Ac-YVAD-CMK) was introduced. Nigericin (10, 25, 50 µM) was added to both the apical and basolateral aspect of the Transwell. […] For microspheres and […] experiments, after overnight incubation with nigericin, 10^7/ml of 1 μm Microspheres or 10^9/ml E. coli TMW2.497 were added to the apical aspect of Transwell. One hour after incubation with the microspheres or E. coli, the cells were fixed in cold methanol for 5 minutes. Cells were then permeabilized in 0.2%(v/v) Triton X-100 for 15 min and blocked for one hour in PBS with 0.2% (v/v) goat serum and 1%(w/v) BSA.

The conditions of data set [4]: in vivo; cited from earlier work.
Data set [5] has as its system IL-10 KO mice. Nature of the data set: Permeation of orogavaged 0.5 μm microspheres into blood of IL-10 KO mice. It is filed as in vivo, mouse. The following applies: 10 mg/kg, day 7. The method, then: (§2) To evaluate the effect of caspase-1 inhibition on IEC extrusion over time in vivo, we treated the IL-10 KO mice with a selective caspase-1 inhibitor Ac-YVAD-CMK (10 mg/kg) over 4, 7 and 10 day (5 times the mean lifespan of rodent)enterocytes^40) via intraperitoneal injections. The control IL-10 KO group received 10 days of equal volume of 2% (v/v) DMSO.
For microsphere studies, mice were gavaged with a mixture containing 10^7 Fluoresbrite® YG Microspheres with diameter of 0.5, 1.0, 2.0, 3.0, and 6.0 μm in 200 μl solution as previously described after an overnight fast. Blood samples were collected 4 hours post-administration of the beads. Whole blood mixture was then centrifuged at 1,250×g in pre-heparinized tubes for 10 min at RT, the plasma portion of the samples were removed and centrifuged at 1,250×g for 5 min before flow cytometry analysis. The remaining buffy coat and hematocrit of the samples were lysed with 5 mL of lysing buffer (4.15 g NH4Cl, 0.84 g NaHCO3, 1 ml […] EDTA at pH 8, and 500 mL of ddH2O) at RT, mixed and centrifuged at 1,250×g for 5 min at 4° C.×3. The supernatant was discarded. The WBC pellet was re-suspended in 400 μl of 0.03% PBS with Fetal Bovine Albumin. The plasma and WBC pellet samples were analyzed with flow cytometry for determination of microsphere counts.

Data set [6] has as its system IL-10 KO mice. Nature of the data set: IEC extrusion measured as epithelial gap density by confocal endomicroscopy in IL-10 KO mice. It counts as in vivo, mouse. As to conditions: 10 mg/kg intraperitoneal, 4, 7 and 10 days. The method, then:
as §2
Confocal laser endomicroscopy of the mouse ileum and confocal microscopy of whole mount mouse intestinal tissues for determination of epithelial gap density were performed using previously described methods. Cell culture, human and mouse intestinal slides were imaged using a spinning disc confocal microscope (Quorum Technologies Inc, Guelph, ON) using previously described methods.

On to `CO[C@@H]1C[C@@H](C[C@H]2CC[C@H](C)[C@H]([C@@H](C)C(=O)O)O2)O[C@]2(O[C@](C)([C@H]3CC[C@@](C)([C@@H]4O[C@@H]([C@H]5O[C@@](O)(CO)[C@H](C)C[C@@H]5C)C[C@@H]4C)O3)C[C@H]2C)[C@@H]1C` [nigericin, Nigericin], for which the “movement of 1 μm microspheres and E. coli TMW2.497 across the monolayer” value in data set [1] is “Movements of microspheres and E. coli from the upper chamber through the monolayer to the lower chamber of the Transwell were observed”. Further, in data set [2] (nigericin 50 μM, T84 cells), the “active caspase-1 (p10) expression by Western blot” value is “increased active caspase-1 (p10) expression”. Besides, the “activated caspase-1 and cell extrusion by FLICA 1 staining” value in data set [2] (nigericin, 3-hours post-treatment) was “increased activated caspase-1 and cell extrusion”. Besides, the “TER of T84 monolayers (barrier function)” value in data set [3] (nigericin 10, 25, 50 μM, 3 h) is “dose-dependent reduction in TER; also recorded: dose-dependent barrier dysfunction developed”. Moreover, the “TER as measured by ECIS over time” value in data set [3] (nigericin, overnight) is “time-dependent reduction in TER”. Also, the systemic toxicity result in data set [4] was “significant systemic toxicity”.

With Ac-YVAD-CMK, the “permeation of orogavaged 0.5 μm latex microspheres into blood” value in data set [5] is “normalization of permeation”. Besides, the “IEC extrusion as epithelial gap density” value in data set [6] is “Time-dependent reduction in IEC extrusion”. Moreover, in data set [3] (nigericin 25 μM, overnight), the “reversal of nigericin-induced TER reduction measured by ECIS” value is listed as “reversed”. In data set [3] (pre-treatment with caspase-1 inhibitor, nigericin 25 μM, 3 hours and overnight), the “reversal of nigericin-induced TER reduction / barrier dysfunction” value is listed as “reversed; also recorded: abrogated”.
